Experimental findings from article PMC8838415, “Discovery of Novel Pleuromutilin Derivatives as Potent Antibacterial Agents for the Treatment of MRSA Infection” (Molecules, 2022) are described below.

Data set [1] deals with methicillin-resistant S. aureus (ATCC 43300). Kind of data set: MIC and MBC, broth dilution, MRSA ATCC 43300. The class given is cell-based. The settings on record: Staphylococcus aureus. In short, it runs like this:
(§1)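 Compounds, in 2.5% tween-80/2.5% DMSO, serially diluted in MH broth over 32–0.01 µg/mL with 5 × 10^5 CFU/mL inoculum, triplicates, 22–26 h at 37 °C; MIC = lowest concentration with no visible growth. MBC from plating non-turbid wells on MH agar, further 22–26 h at 37 °C.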

The test system of the next data set is S. aureus (ATCC 29213). Kind of data set: MIC and MBC, broth dilution, S. aureus ATCC 29213. The class given is cell-based. The conditions noted are these: Staphylococcus aureus, ATCC29213. The procedure, abridged: as §1
In the next data set the test system is S. aureus (AD3). Kind of data set: MIC and MBC, broth dilution, S. aureus AD3. The settings on record: Staphylococcus aureus; S. aureus AD3 (clinical strain). The data set is classed as cell-based. In short, it runs like this: as §1
The subject of another data set is S. aureus (144). Kind of data set: MIC and MBC, broth dilution, S. aureus 144. The data set is classed as cell-based. The conditions noted are these: Staphylococcus aureus; S. aureus 144 (clinical strain). The procedure, abridged: as §1
In data set [2] the test system is MRSA ATCC 43300. Kind of data set: Constant concentration time-kill curves. The data set is classed as cell-based, Staphylococcus aureus. The settings on record: 2× MIC, in 9 h. The method, then: The time-kill curve experiments of compound 8 and compound 9 were performed according to a previous report in triplicate. The logarithmic phase of MRSA 43300 was diluted to about 10^6 CFU/mL with MH broth. […] All samples were shaken at 37 °C. Samples (100 μL) were taken at 0, 3, 6, 9 and 24 h from the mixtures. Each sample was diluted decuple continuously with sterile saline. Then, 20 μL of the diluted sample was plated on the sterile MH agar plate and incubated for 22–26 h at 37 °C. The total bacteria on the plates were counted as CFU/mL to calculate the bacterial colonies. The time-kill curve was constructed by scheming log10 CFU/mL of bacteria counts versus time.

The subject of another data set is MRSA. Kind of data set: Neutropenic murine thigh infection model. The class given is in vivo, mice. The method, then: The neutropenic murine thigh infection model experiment was performed as described in the literature. Six-week-old SPF-ICR female mice weighing 24–28 g were used for this study. The mice were injected with cyclophosphamide (Mead Johnson Pharmaceuticals, Evansville, Indiana—IN, USA) at a dose of 150 mg/kg 4 days and at a dose of 100 mg/kg 1 day before the experiment to reduce neutrophils and achieve immunosuppression (<0.1 × 10^9/L). A total of 0.1 mL MH broth (MRSA concentration approximately 10^7 CFU/mL) was injected into the posterior thigh of mice to establish the infection model. After the thighs of the mice were infected for 2 h, these mice were randomly divided into 3 groups (3 per group). […] A total of 24 h after the completion of the drug, the mice were euthanized and their thigh tissues were collected. Then, their thigh tissues were weighed and homogenized, respectively, in 3 mL of iced sterile saline. Tissue homogenate was serially diluted 10-fold and plated on MH agar. The resulting bacterial colonies were determined after incubation for 24 h.

Data set [3] relates to MRSA ATCC 43300. Kind of data set: Post antibiotic effect (PAE).
Description: By diluting with the preheated MH broth 1000 times, the compound was removed from the sample. […] The samples were diluted decuple with sterile saline and plated onto the preheated MH agar plates. […] The PAE value was calculated by the equation (PAE = TA – TC) and presented after an hour.
For the next data set, the target named is CYP3A4 (Homo sapiens, UniProt P08684). Kind of data set: Human liver microsomal CYP3A4 enzyme inhibition. Details: from tissue; host or cells: human liver microsomes. The data set is classed as in vitro ADME. The conditions noted are these: human liver microsomes, testosterone substrate. Here is the method: The inhibitory effect of compound 9 on CYP3A4 was evaluated according to previous work. The experiments were performed in 96-well plates with a final incubation volume of 100 µL per well. A total of 20 µL of compound 9 was added to 96-well plates, with final concentrations of 0.25, 0.5, 1, 5, 10, and 50 µM. Then, 40 µL of human liver microsomes (final concentration of human liver microsomes was 0.2 mg/mL) and 20 µL of probe substrates (final concentration of testosterone was 20 μmol/L) in 0.1 M Tris (pH = 7.4) were added. After preincubation at 37 °C for 5 min, the reaction started with the addition of 20 µL of NADPH (final concentration is 1 mmol/L). Then, the plate was incubated at 37 °C for 5 min, and then 100 μL acetonitrile (with loratadine used as an internal standard) was added to terminate the reaction. After the reactions were completed, the plates were centrifuged and the supernatants were analyzed for the loratadine and probe substrates testosterone by LC-MS/MS.
Sequence of CYP3A4 (P08684 whole entry): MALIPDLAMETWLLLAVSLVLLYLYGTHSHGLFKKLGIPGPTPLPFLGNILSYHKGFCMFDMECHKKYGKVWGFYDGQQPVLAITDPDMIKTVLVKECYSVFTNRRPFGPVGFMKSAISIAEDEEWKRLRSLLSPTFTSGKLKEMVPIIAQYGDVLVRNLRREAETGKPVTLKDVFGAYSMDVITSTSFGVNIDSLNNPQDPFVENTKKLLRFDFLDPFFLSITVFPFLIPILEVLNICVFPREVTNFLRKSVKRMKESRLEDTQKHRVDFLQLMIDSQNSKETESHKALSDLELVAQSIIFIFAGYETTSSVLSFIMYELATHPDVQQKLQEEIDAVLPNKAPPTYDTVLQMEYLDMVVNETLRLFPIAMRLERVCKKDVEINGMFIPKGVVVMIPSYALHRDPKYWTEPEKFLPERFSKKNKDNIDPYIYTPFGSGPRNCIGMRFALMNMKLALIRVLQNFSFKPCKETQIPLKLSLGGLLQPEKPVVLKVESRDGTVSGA

≈ marks a conversion by molar mass, not a printed value.

`C=C[C@]1(C)C[C@@H](OC(=O)CNc2ccc(F)cc2)[C@]2(C)[C@H](C)CC[C@]3(CCC(=O)[C@H]32)[C@@H](C)[C@@H]1O` [Compound 9, 22-(4-Fluoroanilineyl)-22-deoxypleuromutilin] displayed a melting point of 91 to 93 °C. For the same molecule, in data set [1], the minimal bactericidal concentration (MBC) amounted to 0.25 µg/mL (≈ 0.53 µM) and the MIC is 0.06 µg/mL (≈ 0.127 µM). In the data set with S. aureus (ATCC 29213), this molecule came in with an MBC of 0.5 µg/mL (≈ 1.06 µM) and an MIC of 0.25 µg/mL (≈ 0.53 µM). In the data set on S. aureus (AD3), this molecule displayed an MBC of 0.5 µg/mL (≈ 1.06 µM) and an MIC of 0.12 µg/mL (≈ 0.254 µM). In the data set with S. aureus (144), this molecule registered an MBC of 1 µg/mL (≈ 2.12 µM) and an MIC of 0.5 µg/mL (≈ 1.06 µM). Also, the “MRSA killed (time-kill)” value with MRSA ATCC 43300 [2] is given as 99.9%. Further, the “reduction of MRSA load in thigh compared with tiamulin” value with MRSA (20 mg/kg each, difference to tiamulin group) is recorded as ~ 0.7 log10 CFU/mL. Further, the “reduction of MRSA load in thigh” value in the data set with MRSA (20 mg/kg intravenously, 24 h, compared to the no-drug control group) was ~ 1.3 log10 CFU/mL. In the data set on MRSA ATCC 43300 [3] (exposure to 2× MIC for 2 h), this molecule gave a PAE of 1.54 h. Further, the PAE in the data set with MRSA ATCC 43300 [3] (exposure to 4× MIC for 2 h) worked out at 1.71 h. In addition, the IC50 against CYP3A4 amounted to 6.19 µM. Further, the 50% inhibitory concentration (IC50) against CYP3A4 (converted with MW) was 6.19 µM.
